These results are taken from PubChem BioAssay (NCI).

SMILES strings stand for the structures.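 Dose response: 5 concentrations. Exposure: 48 h. Format: 96-well plates. Endpoint: linear interpolation; highest concentration if not reached. TGI is the concentration that stops growth completely.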

Holding throughout (experiment): NCI-60 cell line screen, 48 h
Assay [1] has as its system 786-0 renal.
The test system of assay [2] is HCT-116 colon.
Assay [3] relates to HCT-15 colon.
For assay [4], the system named is HT29 colon.
Assay [5] deals with KM12 colon.
In assay [6] the test system is LOX IMVI melanoma.
The subject of assay [7] is M14 melanoma.
The test system of assay [8] is MALME-3M melanoma.
Assay [9] relates to OVCAR-3 ovarian.
The test system of assay [10] is OVCAR-4 ovarian.
Assay [11] relates to SF-268 CNS.
Assay [12] deals with SK-MEL-28 melanoma.
Assay [13] relates to SNB-75 CNS.
The subject of assay [14] is UACC-257 melanoma.
In assay [15] the test system is UACC-62 melanoma.
Assay [16] relates to UO-31 renal.
The subject of assay [17] is RXF 393 renal.

In the case of `COc1ccc(C(Cc2cc(OC)c(OC)c(OC)c2)C(=O)O)cc1` (centres undefined), the TGI in assay [1], in assay [2], in [3], in assay [4], in assay [5] and in assay [6] was over 100 µM in each case. Also, the TGI in assay [7] is over 100 µM; in [8], over 100 µM; in assay [9] it was 84.7 µM; in assay [10] it was over 100 µM; in [11] it was over 100 µM; in assay [12], over 100 µM. Besides, the TGI in [13] was 65.2 µM; in [14] it was over 100 µM; in assay [15] it was over 100 µM; in [16], over 100 µM.
With `COC(=O)C1=C(C(=O)OC)C2C(C)=CC(C)=CN2C(C#N)=C(SC)S1` (centres undefined), the TGI in assay [1] amounted to 73.2 µM; in assay [2], 29.6 µM; in assay [3], 44 µM; in assay [4] it was 44.6 µM; in assay [6], 35.4 µM; in [7], 35.2 µM. Further, the TGI is 48.3 µM in assay [8]; 72.7 µM in assay [9]; 30.6 µM in [17]; 56.8 µM in assay [11]; 41.8 µM in assay [12]; over 100 µM in assay [13]. Further, the TGI came out at 64.3 µM in assay [14] and 26.8 µM in [16].
Take `O=c1[nH]c(=O)n(COCCO)c2ccc(Br)cc12`: the TGI in [1], in assay [2], in assay [3], in [4], in assay [5] and in assay [6] was over 100 µM in each case. Also, the TGI in assay [7], in assay [9], in assay [10], in assay [17], in assay [12] and in [13] was over 100 µM throughout. Besides, the TGI in assay [14], in assay [15] and in [16] was over 100 µM in each case.
For the molecule `O=C(Cc1ccccc1)NN1C(=O)C(Cl)C1c1ccc([N+](=O)[O-])cc1` (centres undefined), the TGI in assay [1], in assay [2], in [3], in [4], in [5] and in [6] was over 100 µM throughout. Besides, the TGI in [7], in [8], in assay [9], in [10], in assay [17] and in assay [11] was over 100 µM throughout. Moreover, the TGI in assay [12], in assay [13], in [14], in assay [15] and in [16] was over 100 µM in each case.
On to `C=CN1C(=O)OC[C@@H]1c1ccccc1`, for which the TGI in assay [1], in [2], in assay [3], in [4], in [5] and in [6] was over 100 µM in each case. Further, the TGI in assay [7], in assay [8], in assay [9], in assay [10], in assay [17] and in assay [11] was over 100 µM throughout. Besides, the TGI in [12], in assay [13], in assay [14], in assay [15] and in assay [16] was over 100 µM throughout.
For `Nc1ccc(C(=O)NN2C(=O)C(Cl)C2c2cc(Br)ccc2O)cc1` (centres undefined), the TGI in assay [1] is over 100 µM; in assay [2], 32.5 µM; in [3], over 100 µM; in [4] it was over 100 µM; in [5], over 100 µM; in [6] it was over 100 µM. The TGI in assay [7], in assay [8], in [9], in [10], in assay [11] and in assay [12] was over 100 µM throughout. The TGI in assay [13], in assay [14], in [15] and in [16] was over 100 µM throughout.
As to `COP(=O)(OC)C(=NCc1ccccc1)NNc1ccc([N+](=O)[O-])cc1`, the TGI is over 100 µM in [1]; 69 µM in assay [2]; over 100 µM in assay [3]; over 100 µM in [4]; over 100 µM in [5]; 53.7 µM in assay [7]. Besides, the TGI is over 100 µM in assay [8]; over 100 µM in assay [9]; 90.7 µM in assay [10]; 84.9 µM in [11]; over 100 µM in assay [12]; 37.6 µM in assay [13]. Further, the TGI is 51.1 µM in [14] and over 100 µM in assay [15].
As to `COc1ccc(N(C)Sc2ccccc2)cc1`, the TGI in assay [1] is 34.9 µM; in assay [2], over 100 µM; in assay [3] it was over 100 µM; in assay [5], over 100 µM; in assay [6] it was over 100 µM; in assay [7] it was over 100 µM. The TGI in assay [8] is over 100 µM; in [9], over 100 µM; in assay [17], 53.4 µM; in [11] it was over 100 µM; in [12], over 100 µM; in [14], over 100 µM. Besides, the TGI in [15] and in [16] was over 100 µM throughout.
Turning to `COc1c(OC)c(N)c2cc(C)c(=O)c(C)cc2c1N`, the TGI in [1], in [2], in assay [3], in assay [4], in assay [5] and in assay [6] was over 100 µM throughout. Further, the TGI in [7], in [8], in [9], in assay [10], in [17] and in [11] was over 100 µM throughout. The TGI in [13], in [14], in assay [15] and in assay [16] was over 100 µM each time.
